Activity calls are given as the source filed them.
Legend:
[1] = target: T1, Heat shock factor protein 1 (Mus musculus, UniProt P38532); test: HSF1 potentiators in luciferase reporter cells, confirmation, cell-based, NIH3T3, luminescence, dose retest (AID 435004); format: functional;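 further: stress induced by proteasome inhibitor MG132 added 30 min after compound; luciferase reporter driven by HSF1 response element in NIH3T3 cells; actives raise luminescence as potentiators of the MG132 stress response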
T1 sequence (P38532 whole entry): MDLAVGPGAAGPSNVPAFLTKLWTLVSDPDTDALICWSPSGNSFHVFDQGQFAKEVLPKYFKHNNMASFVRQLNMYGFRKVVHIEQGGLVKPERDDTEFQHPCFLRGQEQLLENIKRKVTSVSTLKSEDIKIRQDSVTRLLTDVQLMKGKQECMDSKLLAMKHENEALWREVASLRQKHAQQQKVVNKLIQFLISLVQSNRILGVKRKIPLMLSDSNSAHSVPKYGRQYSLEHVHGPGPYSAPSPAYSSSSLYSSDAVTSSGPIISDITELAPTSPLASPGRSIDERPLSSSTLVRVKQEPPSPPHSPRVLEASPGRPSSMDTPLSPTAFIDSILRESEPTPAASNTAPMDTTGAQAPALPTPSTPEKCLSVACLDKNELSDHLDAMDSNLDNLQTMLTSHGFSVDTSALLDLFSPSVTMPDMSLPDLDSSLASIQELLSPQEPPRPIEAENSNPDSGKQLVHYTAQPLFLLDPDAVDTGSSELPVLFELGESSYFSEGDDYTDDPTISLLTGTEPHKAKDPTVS

Cytochrome P450 1A2 = target: T2, Cytochrome P450 1A2 (Homo sapiens, UniProt P05177);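 further: PubChem cytochrome P450 panel assay, CYP1A2 panel member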
T2 sequence (P05177 whole entry): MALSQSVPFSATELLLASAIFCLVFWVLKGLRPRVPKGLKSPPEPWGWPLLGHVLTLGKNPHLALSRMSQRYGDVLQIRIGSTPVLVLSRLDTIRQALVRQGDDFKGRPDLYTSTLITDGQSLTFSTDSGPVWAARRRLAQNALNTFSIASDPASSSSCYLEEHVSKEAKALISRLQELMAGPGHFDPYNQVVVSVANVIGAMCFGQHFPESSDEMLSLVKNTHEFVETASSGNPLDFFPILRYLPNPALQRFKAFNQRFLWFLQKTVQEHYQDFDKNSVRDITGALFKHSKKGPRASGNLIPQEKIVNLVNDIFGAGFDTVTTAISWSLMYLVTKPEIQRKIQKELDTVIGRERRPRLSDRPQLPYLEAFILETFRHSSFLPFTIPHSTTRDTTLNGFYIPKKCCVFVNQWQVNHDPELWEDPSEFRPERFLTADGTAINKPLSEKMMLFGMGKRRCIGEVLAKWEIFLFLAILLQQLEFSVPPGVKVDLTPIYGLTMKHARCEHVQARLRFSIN

Cytochrome P450 2C19 = Cytochrome P450 2C19 (Homo sapiens, UniProt P33261); test: Cytochrome panel assay with activity outcomes. Panel member name: p450-cyp2c19 Compounds with AC50 equal or less than 10 uM are considered active; format: functional
Cytochrome P450 3A4 = Cytochrome P450 3A4 (Homo sapiens, UniProt P08684);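 further: CYP3A4 tested as one member of a cytochrome P450 panel screen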
Cytochrome P450 2C9 = Cytochrome P450 2C9 (Homo sapiens, UniProt P11712)
[2] = target: T3, RNA-binding protein pos-1 (Caenorhabditis elegans, UniProt G5EF15); test: inhibitors of POS-1/mex-3 RNA binding, dose response, biochemical, fluorescence polarization (AID 1964);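 further: purified POS-1 fused to maltose binding protein made in E. coli; potency of compounds blocking POS-1 binding to fluorescent RNA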
T3 sequence (G5EF15 whole entry): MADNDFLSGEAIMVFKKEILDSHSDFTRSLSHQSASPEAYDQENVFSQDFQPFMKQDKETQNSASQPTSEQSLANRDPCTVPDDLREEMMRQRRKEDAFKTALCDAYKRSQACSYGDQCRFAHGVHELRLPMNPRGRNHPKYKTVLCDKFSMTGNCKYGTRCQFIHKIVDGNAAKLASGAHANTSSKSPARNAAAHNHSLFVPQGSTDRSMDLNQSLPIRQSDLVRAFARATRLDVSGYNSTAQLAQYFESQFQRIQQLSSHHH

[3] = target: T4, Zinc finger protein mex-5 (Caenorhabditis elegans, UniProt Q9XUB2); test: MEX-5/TCR-2 RNA interaction inhibitors, dose response, biochemical, C. elegans, fluorescence polarization (AID 1960)
T4 sequence (Q9XUB2 whole entry): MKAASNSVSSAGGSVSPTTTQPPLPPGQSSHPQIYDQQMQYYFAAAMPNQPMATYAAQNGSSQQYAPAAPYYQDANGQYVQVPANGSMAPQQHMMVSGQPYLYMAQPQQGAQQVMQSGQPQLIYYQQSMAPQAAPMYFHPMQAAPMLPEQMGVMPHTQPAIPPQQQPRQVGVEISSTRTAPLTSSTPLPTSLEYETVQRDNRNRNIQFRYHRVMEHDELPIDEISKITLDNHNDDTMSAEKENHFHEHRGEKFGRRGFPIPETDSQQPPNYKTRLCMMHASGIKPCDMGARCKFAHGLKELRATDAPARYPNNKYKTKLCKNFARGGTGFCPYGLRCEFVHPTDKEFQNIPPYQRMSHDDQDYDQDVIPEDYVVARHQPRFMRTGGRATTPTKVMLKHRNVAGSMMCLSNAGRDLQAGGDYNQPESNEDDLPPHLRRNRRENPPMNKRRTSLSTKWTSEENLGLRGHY

[4] = target: T5, Corticotropin-releasing factor receptor 2/Corticotropin-releasing factor-binding protein (Homo sapiens, UniProt P24387+Q13324); test: activators of CRF receptor 2 with binding protein – uHTS hits, confirmation (AID 602473); format: functional; details: read-out: EC50_Mean
T5 sequence (Q13324 whole entry): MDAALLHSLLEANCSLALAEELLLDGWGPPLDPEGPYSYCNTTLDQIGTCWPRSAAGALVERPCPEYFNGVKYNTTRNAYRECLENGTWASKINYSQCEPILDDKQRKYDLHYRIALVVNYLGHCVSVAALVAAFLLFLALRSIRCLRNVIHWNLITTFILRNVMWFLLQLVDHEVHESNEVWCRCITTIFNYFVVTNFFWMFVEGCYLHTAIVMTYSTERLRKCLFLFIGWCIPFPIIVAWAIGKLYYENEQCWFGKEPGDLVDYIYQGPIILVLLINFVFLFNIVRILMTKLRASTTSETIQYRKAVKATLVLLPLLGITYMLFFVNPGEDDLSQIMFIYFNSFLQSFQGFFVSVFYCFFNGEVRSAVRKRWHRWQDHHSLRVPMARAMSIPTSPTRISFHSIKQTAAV
T5 sequence (P24387 whole entry): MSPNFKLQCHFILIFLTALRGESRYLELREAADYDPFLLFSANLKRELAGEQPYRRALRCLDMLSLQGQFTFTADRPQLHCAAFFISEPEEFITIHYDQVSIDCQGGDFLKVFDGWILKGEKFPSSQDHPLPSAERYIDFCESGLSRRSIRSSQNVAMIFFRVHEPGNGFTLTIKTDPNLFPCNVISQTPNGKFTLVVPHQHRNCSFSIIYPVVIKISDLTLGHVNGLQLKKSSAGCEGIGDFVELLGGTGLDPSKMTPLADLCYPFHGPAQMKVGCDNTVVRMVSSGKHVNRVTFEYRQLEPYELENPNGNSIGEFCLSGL

Cytochrome P450 2C19, sequence (P33261 whole entry): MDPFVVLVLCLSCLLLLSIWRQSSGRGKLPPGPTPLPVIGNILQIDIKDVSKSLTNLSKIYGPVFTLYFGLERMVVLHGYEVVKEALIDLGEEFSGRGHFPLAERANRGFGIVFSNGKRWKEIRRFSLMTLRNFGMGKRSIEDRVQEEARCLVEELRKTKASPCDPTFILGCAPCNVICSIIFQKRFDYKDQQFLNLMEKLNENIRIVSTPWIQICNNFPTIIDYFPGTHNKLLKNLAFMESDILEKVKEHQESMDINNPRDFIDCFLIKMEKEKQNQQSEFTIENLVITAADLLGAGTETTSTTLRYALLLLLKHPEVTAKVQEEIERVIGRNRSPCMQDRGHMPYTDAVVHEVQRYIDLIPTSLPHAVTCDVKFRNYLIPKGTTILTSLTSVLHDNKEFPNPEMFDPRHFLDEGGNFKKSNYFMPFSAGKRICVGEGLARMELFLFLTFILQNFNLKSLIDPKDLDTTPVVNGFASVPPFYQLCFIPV
Cytochrome P450 2C9, sequence (P11712 whole entry, the tested form may be a part): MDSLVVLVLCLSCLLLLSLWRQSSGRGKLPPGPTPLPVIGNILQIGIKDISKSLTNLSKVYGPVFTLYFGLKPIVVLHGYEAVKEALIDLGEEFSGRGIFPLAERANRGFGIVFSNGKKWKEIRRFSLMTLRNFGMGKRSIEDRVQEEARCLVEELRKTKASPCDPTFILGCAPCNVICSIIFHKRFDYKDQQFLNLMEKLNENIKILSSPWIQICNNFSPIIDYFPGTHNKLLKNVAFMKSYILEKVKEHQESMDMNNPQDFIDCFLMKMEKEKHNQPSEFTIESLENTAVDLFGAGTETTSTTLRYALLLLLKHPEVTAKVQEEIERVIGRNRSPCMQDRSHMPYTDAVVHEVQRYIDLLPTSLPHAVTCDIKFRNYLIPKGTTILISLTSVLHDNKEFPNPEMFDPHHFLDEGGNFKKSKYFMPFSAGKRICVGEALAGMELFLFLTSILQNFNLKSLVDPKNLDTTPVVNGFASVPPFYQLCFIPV
Cytochrome P450 3A4, sequence (P08684 whole entry): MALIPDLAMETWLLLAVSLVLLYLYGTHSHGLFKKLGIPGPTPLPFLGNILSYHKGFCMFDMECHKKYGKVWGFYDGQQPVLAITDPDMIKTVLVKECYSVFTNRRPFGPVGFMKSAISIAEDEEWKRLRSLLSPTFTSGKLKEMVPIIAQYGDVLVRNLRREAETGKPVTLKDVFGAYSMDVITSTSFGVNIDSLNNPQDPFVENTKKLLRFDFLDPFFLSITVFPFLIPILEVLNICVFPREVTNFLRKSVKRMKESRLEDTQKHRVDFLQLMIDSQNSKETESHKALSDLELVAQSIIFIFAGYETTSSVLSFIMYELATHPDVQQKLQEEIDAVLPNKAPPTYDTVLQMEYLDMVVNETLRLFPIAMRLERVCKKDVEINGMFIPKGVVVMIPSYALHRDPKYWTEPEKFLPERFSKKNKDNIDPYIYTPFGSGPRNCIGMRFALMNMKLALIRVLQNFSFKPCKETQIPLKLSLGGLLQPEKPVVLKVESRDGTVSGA

CCn1c(SCC(=O)c2ccc(Cl)cc2)nnc1-c1ccoc1C
EC50 [1]: > 260 µM (inactive)

NCCSc1nc(-c2ccccc2)c(-c2ccccc2)o1
AC50 (Cytochrome P450 1A2): 3.16 µM (inconclusive) | AC50 (Cytochrome P450 2C19; read-out: AC50): 0.00794 µM (inconclusive)

CC(C)(C)c1ccc(-c2nnc(SCc3ccc(Cl)cc3)n2-c2cccc(C(F)(F)F)c2)cc1
AC50 (Cytochrome P450 1A2): 3.16 µM (inconclusive) | AC50 (Cytochrome P450 3A4): 3.16 µM (inconclusive) | AC50 (Cytochrome P450 2C9): 3.16 µM (inconclusive)

Nc1nc(N)c(/N=N\c2ccc(C(=O)O)c(O)c2)c(N)n1
AC50 (Cytochrome P450 2C19; read-out: AC50): 0.631 µM (inconclusive)

COC(=O)N1CCC2(CCCN(C(=O)Nc3cccc(F)c3)C2)CC1
AC50 (Cytochrome P450 3A4): 25.1 µM (inconclusive)

O=C(c1cccs1)N1CCN(C(=O)C(c2ccccc2)c2ccccc2)CC1
AC50 (Cytochrome P450 2C19; read-out: AC50): 25.1 µM (inconclusive)

O=C1NC(=O)N(Cc2ccccc2)C(=O)/C1=C/NNC(=O)c1ccncc1
EC50 [2]: 43.9 µM (active) | EC50 [3]: 93.9 µM (active)

O=C(NCCn1cccn1)C1CCC(=O)N(CCc2cccc(F)c2)C1 (stereo not given)
EC50 [1]: > 260 µM (inactive)

CCc1ccc2c(-c3cccc(Cl)c3)nc(=O)n(CC)c2n1
AC50 (Cytochrome P450 3A4): 31.6 µM (inconclusive) | AC50 (Cytochrome P450 2C9): 39.8 µM (inconclusive)

O=C(CSc1ccc(Cl)cc1)Nc1ccc(N2CCN(C(=O)c3ccc(Cl)cc3)CC2)cc1
AC50 (Cytochrome P450 2C19; read-out: AC50): 14.1 µM (inconclusive)

C[C@@]1(C(NC(=O)c2cccs2)c2ccc(-c3ccccc3)cc2)C[C@H]1C1CCCCC1 (stereo not given in full)
AC50 (Cytochrome P450 3A4): 20 µM (inconclusive)

Cc1ccc(S(=O)(=O)n2c(=O)oc3ccccc32)cc1
EC50 [1]: > 260 µM (inactive)

COc1ccc(CNC(=O)C(c2ccc(C)o2)N(C(=O)c2csnn2)c2ccc(C(C)C)cc2)cc1 (stereo not given)
EC50 [1]: 73.7 µM (active)

O=C(O)c1ccccc1N(c1ccccc1)c1ccccc1
EC50 [2]: > 300 µM (not active) | EC50 [3]: > 300 µM (not active)

CCCCn1cnc2c(oc3nc4c(cc32)CCCC4)c1=O
EC50 [1]: > 260 µM (inactive)

CC(C)CNC(=O)C1Nc2ccc(OC(F)(F)F)cc2C2C=CCC12 (stereo not given)
EC50 [2]: > 300 µM (not active) | EC50 [3]: > 300 µM (not active)

Cc1c(Cl)cccc1NC(=O)CCC(=O)NNC(=O)c1ccco1
AC50 (Cytochrome P450 2C19): inconclusive

CN1CCN(c2ncc3nc(-c4cn(C)c5ccccc45)c(=O)n(C)c3n2)CC1
AC50 (Cytochrome P450 1A2): 31.6 µM (inconclusive) | AC50 (Cytochrome P450 3A4): 25.1 µM (inconclusive) | AC50 (Cytochrome P450 2C9): 12.6 µM (inconclusive)

Cc1cccc(/C=C(\C(=O)C(=O)O)c2ccc3ccccc3n2)c1
EC50 [2]: 27.2 µM (active) | EC50 [3]: 22.9 µM (active)

C/C(CCC(=O)OC[C@@H]1O[C@H](C#Cc2ccccc2)C=C[C@@H]1Oc1ccc(C)cc1)=N/OC[C@@H](O)COCc1ccco1
AC50 (Cytochrome P450 2C9): 1.58 µM (inconclusive)

Cc1cc(C)n(CCCNCC(O)c2ccccc2)n1 (stereo not given)
AC50 (Cytochrome P450 1A2): 39.8 µM (inconclusive) | AC50 (Cytochrome P450 3A4): 35.5 µM (inconclusive)

COc1cc(OC)c2c(c1Cl)O[C@@]1(C2=O)[C@H](C)CC(=O)C[C@@H]1OC
AC50 (Cytochrome P450 1A2): 15.8 µM (inconclusive) | AC50 (Cytochrome P450 3A4): 12.6 µM (inconclusive)

Cc1cccn2c(=O)c3c(nc12)N1CCC(Cc2ccccc2)CC1C1(C3)C(=O)N(C)C(=O)N(C)C1=O (stereo not given)
EC50 [1]: > 260 µM (inactive)

COc1ncc2nc(-c3cn(C)c4ccccc34)c(=O)n(C)c2n1
AC50 (Cytochrome P450 2C19): inconclusive

CNc1nc(Nc2ccc(C)c(Cl)c2)nc(N)c1[N+](=O)[O-]
EC50 [1]: 82.2 µM (active)

O=C(O)CSc1nnnn1-c1ccc2c(c1)OCCO2
EC50 [1]: > 260 µM (inactive)

O=C(c1cccc(F)c1)N1CCC2(CCCN(Cc3ccncc3)C2)CC1
AC50 (Cytochrome P450 1A2): 15.8 µM (inconclusive) | AC50 (Cytochrome P450 3A4): 3.98 µM (inconclusive)

O=C1NC(=O)C(=Cc2ccc(-c3ccc(S(=O)(=O)N4CCOCC4)cc3)o2)C(=O)N1
EC50 [2]: 40.5 µM (active) | EC50 [3]: 34.7 µM (active)

O=S(=O)(c1ccccc1)N1CCCC1c1nc2ccccc2s1 (stereo not given)
AC50 (Cytochrome P450 1A2): 25.1 µM (inconclusive) | AC50 (Cytochrome P450 3A4): 20 µM (inconclusive)

O=C(c1cc(C(F)(F)F)cc(C(F)(F)F)c1)N1CCC2(CCCN(Cc3nccs3)C2)CC1
AC50 (Cytochrome P450 2C19): inconclusive

O=C(c1ccco1)N1CCc2ccccc21
EC50 [2]: > 300 µM (not active) | EC50 [3]: 169 µM (active)

COC(=O)[C@H]1C[C@@H]1[C@H](NC(=O)c1cc(C)nn1C)c1ccccc1
AC50 (Cytochrome P450 2C19; read-out: AC50): 15.8 µM (inconclusive)

CCOC(=O)N1CCN(CC(=O)c2ccc(O)cc2O)CC1
EC50 [2]: 157 µM (active) | EC50 [3]: 40.7 µM (active)

CCC[C@@H]1C[C@@]1(CCC)C(NC(=O)c1ccccc1)c1cccc(Cl)c1 (stereo not given in full)
AC50 (Cytochrome P450 3A4): 3.98 µM (inconclusive) | AC50 (Cytochrome P450 2C9): 20 µM (inconclusive)

Cc1occc1C(=O)NNS(=O)(=O)c1ccc([N+](=O)[O-])cc1
EC50 [1]: > 260 µM (inactive)

O=C(NCc1cccc(F)c1)c1cccc2c1C(=O)c1ccc(N3CCCC3)cc1S2(=O)=O
EC50 [4]: 6.84 µM (active)

COc1ccccc1N1CCN(C2CCCCC2NS(=O)(=O)c2ccc(Cl)cc2)CC1 (stereo not given)
EC50 [4]: 4.3 µM (active)

CCOC(=O)Cn1nnc(-c2cccc(OC)c2)n1
EC50 [1]: > 260 µM (inactive)

CN(C)c1ccc(/C=N/NC2=NS(=O)(=O)c3ccccc32)cc1
EC50 [2]: 39.3 µM (active) | EC50 [3]: > 300 µM (inconclusive)

COc1ccc(/C=N/n2cncn2)cc1COc1ccc(NC(C)=O)cc1
EC50 [1]: > 260 µM (inactive)

O=C(NNC(=O)c1ccccc1[N+](=O)[O-])/C(O)=C/C(=O)c1ccccc1
EC50 [2]: 70 µM (active) | EC50 [3]: 1.11 µM (active)

COc1ccc(C(OCCN2CCC[C@@H](C(=O)O)C2)(c2ccc(OC)cc2)c2ccc(OC)cc2)cc1
AC50 (Cytochrome P450 1A2): 31.6 µM (inconclusive) | AC50 (Cytochrome P450 3A4): 31.6 µM (inconclusive)

CCOC(=O)C1=C(C)NC(=S)NC1c1cccc(O)c1 (stereo not given) [MONASTROL]
AC50 (Cytochrome P450 1A2): 39.8 µM (inconclusive) | AC50 (Cytochrome P450 2C9): 20 µM (inconclusive)

From ChEMBL document CHEMBL1201862, “PubChem BioAssay data set” (2004)
